According to patent US6207656A, “Vitamin D analogues and their neuronal effects” (Cephalon, Inc., priority 1998, dated 2001):

How the values were obtained:
NGF mRNA [1] = experiment: Induction of NGF mRNA expression in rats; assay type: in vivo, Sprague Dawley rats; settings: 8 days (FIG. 1)
Protocol: Five hours after the last dose, the animals were sacrificed by decapitation. Each brain was quickly removed and chilled in ice-cold saline. The brain was cut into 2 mm thick coronal sections. Portions of the hippocampus, encompassing the CA1 region, and the medial septum were removed by punching 2 mm^3 sections using a calibrated tissue punch. Punched sections were immediately frozen on dry ice and then stored at -70° C. RNA was prepared from dissected tissue pieces.
Punches of tissue were homogenized in […] RNAzolB™ (Bioteex Laboratories, Houston, Tex.) using a homogenizer (Tekmar, Germany) until fully homogenized and then 250 μl RNAzilB™ was added. Typically, punches from the corresponding regions of brains of 2 to 3 animals were combined together. RNA was prepared as recommended by the manufacturer (Biotecx Laboratories). Following isopropanol precipitation, RNA was reprecipitated with ethanol and finally resuspended in 25-50 μL of water. Concentration of RNA was measured spectrophotometrically and the quality of RNA was visualized on a nondenaturing agarose gel. Equal amounts of RNA, usually 1-2 μg, were reverse transcribed using Superscript II™ (Gibco BRL), as recommended by the manufacturer. The assay was terminated by incubation at 95° C. 1 min. at 55-60° C. (depending on the primer set) and 2 min. at 72° C. […] After the assay, samples were electrophoresed on 5% nondenaturing acrylamide gels. Gels were dried and the resulting labeled bands were visualized on a phosphorimager (Storm 840, Molecular Dynamics, Sunnyvale, Calif.). The following primers were used: […]
Nerve Growth Factor (NGF). Primers were designed against the rat sequence.

[2] = Serum calcium / hypercalcemia in rats (2 weeks dosing, 28-day toxicology); assay type: in vivo, Sprague Dawley rats
[3] = Serum calcium in fimbria fornix lesioned rats; assay type: in vivo, Sprague Dawley rats; settings: oral gavage daily 14 days; data not shown
Protocol: For the fimbria fornix lesion studies, serum calcium was determined by the following method. Sprague Dawley rats (200-300 g) were dosed as described below. Blood was collected from the animals after sacrifice and allowed to clot at room temperature for 3-10 minutes; cells were pelleted in a clinical centrifuge.
The hippocampal ChAT activity is expressed as a percentage of the hippocampal ChAT activity of the […] control side (i.e., lesion control) in FIGS. 4 to 8.

[4] = system: ChAT producing cholinergic cells; experiment: Fimbria fornix lesion model, cholinergic cell number (ChAT positive septal neurons); assay type: in vivo, rat
Protocol: Fimbria fornix lesioned animals treated orally with Compound (A) (n=10) or vehicle (n=10) were assessed using acetyl cholinesterase staining of both the lesion area and hippocampal formation. Animals received either Compound (A) (1 μg/day) or vehicle via oral gavage (14 days). […] Neurol. 284:187 (1989).
Coronal sections were cut at […] with a cryostat and collected throughout the medial septum. Every fourth section was processed for the visualization of ChAT positive neurons. Approximately 12 sections were assessed per brain. Cholinergic cells were counted and expressed as a ratio of lesioned to unlesioned control side. […] The results, presented in FIG. 9, indicate that lesioned animals treated with Compound (A) have an approximate 30% increase in the number of cholinergic cells as compared to vehicle treated lesioned animals.

[5] = system: rats having bilateral lesions of the fimbria-fornix; experiment: Locomotor activity (hyperactivity) after bilateral fimbria-fornix lesion; assay type: in vivo, rat
Protocol: To determine whether low calcemic doses of vitamin D3 analogs would improve lesion-induced behavioral deficits, Compound (A) (0.1 and 1.0 μg/kg/day) was administered orally once a day (26 days) to rats having bilateral lesions of the fimbria-fornix. Bilateral lesions of the fimbria-fornix cause rats to become hyperactive. To test for hyperactivity, rats were placed in a box marked with squares, where it was observed how many squares the rats entered in a five minute period.

NGF mRNA [6] = experiment: Induction of NGF mRNA expression in primates; assay type: in vivo, monkey
Protocol: Twelve monkeys, ranging in weight from 2.0 Kg to 4.7 Kg, were divided into three groups of 4 animals each: the vehicle group (i.e., control), group dosed with 10 μg/kg/day, and group dosed with 30 μg/kg/clay. The monkeys were dosed orally for 8 days with Compound (A) and were sacrificed 5 hours after the last dosing. Brain regions were dissected and quick frozen. The dissected septi were divided into 3 preparations and two of the three regions of septum were analyzed. Total RNA was prepared and reverse transcribed and gene expression was assessed using polymerase chain reaction by the following procedure.
Total RNA was prepared by homogenizing sections of tissue in 750 μl RNAzolB™ (Biotecx Laboratories, Houston, Tex.) using a homogenizer (Tekmar, Germany) until fully homogenized and then 250 μl RNAzilB™ was added. RNA was prepared as recommended by the manufacturer (Biotecx Laboratories). […] Concentration of RNA was measured spectrophotometrically and the quality of RNA was visualized on a nondenaturing agarose gel. […]
An average of 4 PCR assays (two assays for each gene for two cDNA sets) were used in determining the induction of mRNA expression. To assure that PCR assays were within the linear range of the reaction, the linear range for each gene and each cDNA preparation was determined using serial dilutions of cDNAs. […]

SMILES: C=C1/C(=C\C=C2/CCC[C@]3(C)[C@@H]([C@@H](C)[C@@H](C#CCC(O)(CC)CC)OCC)CC[C@@H]23)C[C@@H](O)C[C@@H]1O [Compound (A), 1(S),3(R)-dihydroxy-20(R)-(1-ethoxy-5-ethyl-5-hydroxy-2-heptyn-1-yl)-9,10-seco-pregna-5(Z),7(E),10(19)-triene]
- production of NGF mRNA (NGF mRNA [1]; 0.3 μg/kg oral): did not facilitate the production of NGF mRNA
- production of NGF mRNA (NGF mRNA [1]; 1.0 and 3.0 μg/kg oral): facilitated the production of NGF mRNA
- serum calcium ([2]; 1.0 μg/kg, after 2 weeks of dosing): did not increase serum calcium
- calcemic classification of dose ([2]; 1.0 μg/kg, considered in toto): hypercalcemic dose when considered in toto
- hypercalcemia, 28-day toxicology studies ([2]; 1 μg/kg, female vs male Sprague Dawley rats, data not shown): hypercalcemic to female, but not male, Sprague Dawley rats
- hypercalcemia ([2]; 3.0 μg/kg): hypercalcemic to the animals
- serum calcium at doses giving the ChAT results [3]: low calcemic dose levels
- increase in number of cholinergic cells vs vehicle treated lesioned animals ([4]; 1 μg/day oral gavage, 14 days (FIG. 9)): ~30%
- septal neurons expressing ChAT ([4]; FIG. 9, partially fimbria fornix lesioned animals vs vehicle): increase in septal neurons expressing ChAT
- locomotor activity (squares entered per 5 minutes) ([5]; 1.0 μg/kg/day oral, 26 days): reduced locomotor activity
- locomotor activity caused by fimbria fornix lesions ([5]; FIG. 10 legend, oral): reduces locomotor activity
- production of NGF mRNA (NGF mRNA [6]; 10 and 30 μg/kg/day oral, 8 days, primate septum (FIG. 14A)): facilitated the production of NGF mRNA
- dosage of greatest NGF mRNA production (NGF mRNA [6]; 10 vs 30 μg/kg/day oral): greatest at a dosage of 10 μg/kg/day
